In US7312237B2, “Combination of epothilone analogs and chemotherapeutic agents for the treatment of prolilferative diseases” (Bristol-Myers Squibb Co., priority 2001, dated 2007):

Legend:
[1] = In vivo antitumor testing, Pat-7 in nude mice; details: nude, mouse, in vivo
Experimental: (§1) All tumor implants for efficacy testing were subcutaneous (sc).
(§2) The MTD was frequently equivalent to OD. When death occurs, the day of death was recorded.
(§3) And, Log cell kill=T−C÷(3.32×TVDT)
(§4) This tumor model was established from a tumor biopsy of an ovarian cancer patient (Pat-7), who was initially responsive to TAXOL® treatment but ultimately developed resistance to it following nine courses of monotherapy with TAXOL®. Prior to treatment with TAXOL®, Pat-7 also received numerous other chemotherapeutic agents including carboplatin, cytoxan, VP-16, ifosfamide and altretamine. Tumor biopsy was taken following development of TAXOL® resistance.

[2] = tested on: Pat-7 human ovarian carcinoma; assay: In vivo antitumor testing, Pat-7 in nude mice
Experimental: as §1, §2, §3, §4

[3] = tested on: A2780Tax human ovarian carcinoma; details: Expt. 12, IV q2dx5, OD 6.3 mg/kg
Source text: (§5) The following human tumors were used: A2780 ovarian, A2780Tax ovarian (established from cells obtained from Dr. Antonio Fojo, Medicine Branch, NCI, Bethesda, Md.), HCT116/VM46 colon, Pat-7 ovarian (established from a tumor biopsy provided by Dr. Thomas Hamilton, Fox Chase Cancer Center, Philadelphia, Pa.) from a patient who had developed resistance to TAXOL®). The murine fibrosarcoma M5076 was also employed.
The following tumors were passaged in the indicated host strain of mouse: murine M5076 fibrosarcoma (M5076) in C57Bl/6 mice; human A2780 and Pat-7 ovarian carcinomas, HCT116, HCT116/VM46 and LS174T colon carcinoma, Pat-21 breast carcinoma in nude mice. Tumor passage occurred biweekly for murine tumors and approximately every two to eight weeks for the various human tumor lines. With regard to efficacy testing, M5076 tumors were implanted in (C57Bl/6×DBA/2)F1 hybrid mice, and human tumors were implanted in nude mice. All tumor implants for efficacy testing were subcutaneous (sc). […]
(§6) Antitumor activity was evaluated at the maximum tolerated dose (MTD) which is defined as the dose level immediately […] which excessive toxicity (i.e. more than one death) occurred. […] When death occurs, the day of death was recorded. […]
(§7) To estimate tumor cell kill, the tumor volume doubling time was first calculated with the formula: […]

[4] = tested on: panel of tumor cell lines; assay: Oncology Diverse Cell Assay, panel of 21 cell lines; format: cell-based; details: 18 of the 21 cell lines tested
Experimental: Bar graphs, on the right, depict the IC50 values of the cell lines listed on the left hand column (top to bottom).
(§8) The in vitro cytotoxicity was assessed in tumor cells by a tetrazolium-based colorimetric assay which takes advantage of the metabolic conversion of MTS (3-(4,5-dimethylthiazol-2-yl)-5-(3-carboxymethoxyphenyl)-2-(4-sulphenyl)-2H-tetrazolium, inner salt) to a reduced form that absorbs light at 492 nm. Cells were seeded 24 hr prior to drug addition. Following a 72 hour incubation at 37° C. with serially diluted compound, MTS, in combination with the electron coupling agent phenazine methosulfate, was added to the cells. The incubation was continued for 3 hours, then the absorbancy of the medium at 492 nm was measured with a spectrophotometer to obtain the number of surviving cells relative to control populations. The results are expressed as median cytotoxic concentrations (IC50 values).

MIP = assay: In vitro cytotoxicity (MTS assay), MIP; format: cell-based; details: 72 h
Experimental: as §8

[5] = In vivo antitumor testing, LS174T xenograft; design: species or system nude mice; details: nude, mouse, in vivo, iv; read-out: OD (optimal dose or MTD)
Experimental: as §1, §2, §3

[6] = tested on: LS174T human colon carcinoma; assay: In vivo antitumor testing, LS174T xenograft; design: species or system nude mice; details: Expt. R578, IV q4dx3, OD 16 mg/kg
Experimental: as §1, §2, §3

[7] = tested on: tubulin isolated from calf brain; assay: Tubulin polymerization assay; format: biochemical
[8] = Stability as a function of pH; format: physicochemical; details: neutral pH versus low pH
Pat-21 breast carcinoma = details: Expt. R667, IV q4dx3; 41, 68, OD 10 mg/kg; interim analysis, study in progress
Source text: (§9) The following tumors were passaged in the indicated host strain of mouse: murine M5076 fibrosarcoma (M5076) in C57Bl/6 mice; human A2780 and Pat-7 ovarian carcinomas, HCT116, HCT116/VM46 and LS174T colon carcinoma, Pat-21 breast carcinoma in nude mice. Tumor passage occurred biweekly for murine tumors and approximately every two to eight weeks for the various human tumor lines. With regard to efficacy testing, M5076 tumors were implanted in (C57Bl/6×DBA/2)F1 hybrid mice, and human tumors were implanted in nude mice. All tumor implants for efficacy testing were subcutaneous (sc).
(§10) The required number of animals needed to detect a meaningful response were pooled at the start of the experiment and each was given a subcutaneous implant of a tumor fragment (·50 mg) with a 13-gauge trocar. For treatment of early-stage tumors, the animals were again pooled before distribution to the various treatment and control groups. For treatment of animals with advanced-stage disease, tumors were allowed to grow to the predetermined size window (tumors outside the range were excluded) and animals were evenly distributed to various treatment and control groups. Treatment of each animal was based on individual body weight. Treated animals were checked daily for treatment related toxicity/mortality. Each group of animals was weighed before the initiation of treatment (Wt1) and then again following the last treatment dose (Wt2). The difference in body weight (Wt2−Wt1) provides a measure of treatment-related toxicity.
(§11) Tumor weights (mg) were estimated from the formula: Tumor weight=(length×width^2)÷2
as §6, §7

[9] = tested on: normal mouse lung fibroblast cell line MLF; assay: In vitro cytotoxicity (MTS assay), MLF; format: cell-based
Experimental: as §8

in vivo = details: nude, mouse, in vivo, iv, Compound 1 IV
Source text: as §5, §9, §10, §11
(§12) Antitumor activity was evaluated at the maximum tolerated dose (MTD) which is defined as the dose level immediately […] which excessive toxicity (i.e. more than one death) occurred. […] When death occurs, the day of death was recorded.
(§13) Tumor response end-point was expressed in terms of tumor growth delay (T-C value), defined as the difference in time (days) required for the treated tumors (T) to reach a predetermined target size compared to those of the control group (C).
(§14) To estimate tumor cell kill, the tumor volume doubling time was first calculated with the formula:
(§15) TVDT=Median time (days) for control tumors to reach target size−Median time (days) for control tumors to reach half the target size
(§16) HCT116/VM46 is an MDR-resistant colon carcinoma developed from the sensitive HCT116 parent line.

[10] = tested on: HCT116/VM46 human colon carcinoma; assay: in vivo
Source text: as §5, §9, §10, §11, §12, §13, §14, §15, §16

With `C/C(=C\c1csc(C)n1)[C@@H]1C[C@@H]2O[C@]2(C)CCC[C@H](C)[C@H](O)[C@@H](C)C(=O)C(C)(C)[C@@H](O)CC(=O)N1` (relative stereo) [Compound 1, [1S-[1R*,3R*(E),7R*,10S*,11R*,12R*,16S*]]-7,11-dihydroxy-8,8,10,12,16-pentamethyl-3-[1-methyl-2-(2-methyl-4-thiazolyl)ethenyl]-4-aza-17-oxabicyclo[14.1.0] heptadecane-5,9-dione] the MTD ([1]; iv, Compound 1 IV, q2dx5, read-out: OD (optimal dose or maximum tolerated dose, MTD)) was 4.8 mg/kg, the MTD ([1]; iv, Compound 1 IV, q4dx3, read-out: OD (optimal dose or MTD)) was 15 mg/kg and the MTD ([1]; po, Compound 1 PO, q2dx5, read-out: OD (optimal dose or MTD)) was 60 mg/kg. The “OD (optimal dose or maximum tolerated dose, MTD)” value ([2]; Compound 1 IV, q2dx5) was 6.3 mg/kg, the “OD (optimal dose or MTD)” value ([2]; Compound 1 PO, q2dx5) was 80 mg/kg and the “LCK (gross log cell kill)” value ([2]; Expt. 8, IV q2dx5, OD 6.3 mg/kg) was 4.5. For the same molecule, the “LCK (gross log cell kill)” value ([2]; Expt. 8, PO q2dx5, OD 60 mg/kg) was 3.1, the “LCK (gross log cell kill)” value ([2]; Expt. 9, PO q2dx5, OD 80 mg/kg) was 2.5 and the “LCK (gross log cell kill)” value ([2]; Expt. 12, IV q2dx5, OD 6.3 mg/kg) was 2.1. The “LCK (gross log cell kill)” value ([2]; Expt. 12, IV q4dx3, OD 15 mg/kg) was 1.7, the “LCK (gross log cell kill)” value ([2]; Expt. R403, IV q2dx5, OD 4.8 mg/kg) was 2.1 and the “LCK (gross log cell kill)” value [3] was 2.5. It also gave an IC50 [4] of 1.4 to 6 nM, an IC50 (MIP) of 24.8 nM and an MTD [5] of 16 mg/kg. The “LCK (gross log cell kill)” value [6] was 2.3, the “Ratio of Polymerization Potency of Analog/Paclitaxel” value [7] was 0.4 and the “stability versus pH” value [8] was “significantly more stable at neutral pH than at low pH”. For the same molecule, the “LCK (gross log cell kill)” value (Pat-21 breast carcinoma) was >1.5^5, the IC50 [9] was 34.5 nM and the MTD (in vivo; OD (optimal dose or MTD), q2dx5) was 4.8 mg/kg. For the same molecule, the MTD (in vivo; OD (optimal dose or MTD; maximum tolerated regimen), q4dx3) was 15 mg/kg, the “OD (optimal dose or MTD)” value ([10]; Compound 1 IV, q2dx5) was 6.3 mg/kg and the “OD (optimal dose or MTD; maximum tolerated regimen)” value ([10]; Compound 1 IV, q4dx3) was 16 mg/kg. The “LCK (gross log cell kill)” value ([10]; Expt. 32, IV q2dx5, OD 4.8 mg/kg) was 3.1, the “LCK (gross log cell kill)” value ([10]; Expt. 33, IV q2dx5, OD 4.8 mg/kg) was 1.3 and the “LCK (gross log cell kill)” value ([10]; Expt. 35, IV q2dx5, OD 6.3 mg/kg) was 1.8. For the same molecule, the “LCK (gross log cell kill)” value ([10]; Expt. 35, IV q4dx3, OD 16 mg/kg) was 2.0, the “LCK of tumor response” value ([10]; FIG. 7, Compound 1 alone, 15 mg/kg iv, q4dx3) was 1.6 LCK and the tumor cure ([10]; FIG. 7, single agent treatment at maximum tolerated regimen) was “did not induce tumor cure”.
